Source: patent publication US20160083391A1, “TRICYCLIC PIPERAZINE DERIVATIVE” (Sunovion Pharmaceuticals Inc., priority 2014, published 2016)

Tested on: PDE1
Assay: In vitro HTRF PDE1 inhibition assay
Format: biochemical
Conditions: HTRF cGMP assay, 100 nM cyclic GMP, PDE (1A3, 1B or 1C) with calmodulin, 45 minutes at 37° C.; isoform of the tabulated values not stated
How it was run: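 Activities are given as IC50 bands (<1, 1-10, >10 μM) derived from a 665/615 nm time-resolved FRET readout after d2-cGMP/anti-cGMP cryptate detection. Enzymes PDE1A3, 1B or 1C plus calmodulin were incubated 45 min at 37 °C with 100 nM cGMP, 1% DMSO, CaCl2/MgCl2 Tris buffer pH 7.4.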

## Cc1cnc(CN2CCn3c(nc4c(cnn4C(C)C)c3=O)C2)cn1 [Compound I-206, 1-Isopropyl-8-((5-methylpyrazin-2-yl)methyl)-6,7,8,9-tetrahydropyrazino[1,2-a]pyrazolo[3,4-d]pyrimidin-4(1H)-one]
  IC50: 1 to 10 µM

## Cc1cnc(CN2CCn3c(nc4c(cnn4C4CCCC4)c3=O)C2)cn1 [Compound I-207, 1-Cyclopentyl-8-((5-methylpyrazin-2-yl)methyl)-6,7,8,9-tetrahydropyrazino[1,2-a]pyrazolo[3,4-d]pyrimidin-4(1H)-one]
  IC50: 1 to 10 µM

## Cc1cnc(CN2CCn3c(nn4c(C(C)C)ncc4c3=O)C2)cn1 [Compound I-208, 3-Isopropyl-7-((5-methylpyrazin-2-yl)methyl)-8,9-dihydro-6H-imidazo[5,1-f]pyrazino[2,1-c][1,2,4]triazin-11(7H)-one]
  IC50: 1 to 10 µM

## Cc1cnc(CN2CCn3c(nn4c(C5CCCC5)ncc4c3=O)C2)cn1 [Compound I-209, 3-Cyclopentyl-7-((5-methylpyrazin-2-yl)methyl)-8,9-dihydro-6H-imidazo[5,1-f]pyrazino[2,1-c][1,2,4]triazin-11(7H)-one]
  IC50: < 1 µM

## COc1ccc(CN2CCn3c(nc4c(cnn4C4CCOCC4)c3=O)C2)cc1 [Compound I-210, 8-(4-Methoxybenzyl)-1-(tetrahydro-2H-pyran-4-yl)-6,7,8,9-tetrahydropyrazino[1,2-a]pyrazolo[3,4-d]pyrimidin-4(1H)-one]
  IC50: 1 to 10 µM

## O=c1c2cnn(C3CCOCC3)c2nc2n1CCN(Cc1ccc(Cl)cc1)C2 [Compound I-211, 8-(4-Chlorobenzyl)-1-(tetrahydro-2H-pyran-4-yl)-6,7,8,9-tetrahydropyrazino[1,2-a]pyrazolo[3,4-d]pyrimidin-4(1H)-one]
  IC50: < 1 µM

## O=c1c2cnn(C3CCOCC3)c2nc2n1CCN(c1ccc(Cl)cc1)C2 [Compound I-212, 8-(4-Chlorophenyl)-1-(tetrahydro-2H-pyran-4-yl)-6,7,8,9-tetrahydropyrazino[1,2-a]pyrazolo[3,4-d]pyrimidin-4(1H)-one]
  IC50: < 1 µM

## COc1ccc(CN2CCn3c(nn4c(CC(C)C)nnc4c3=O)C2)cc1 [Compound I-213, 3-Isobutyl-7-(4-methoxybenzyl)-8,9-dihydro-6H-pyrazino[2,1-c][1,2,4]triazolo[3,4-f][1,2,4]triazin-11(7H)-one]
  IC50: < 1 µM

## CC(C)Cc1nnc2c(=O)n3c(nn12)CN(Cc1ccccc1)CC3 [Compound I-214, 7-Benzyl-3-isobutyl-8,9-dihydro-6H-pyrazino[2,1-c][1,2,4]triazolo[3,4-f][1,2,4]triazin-11(7H)-one]
  IC50: 1 to 10 µM

## CC(C)Cc1nnc2c(=O)n3c(nn12)CN(Cc1ccc(Cl)cc1)CC3 [Compound I-215, 7-(4-Chlorobenzyl)-3-isobutyl-8,9-dihydro-6H-pyrazino[2,1-c][1,2,4]triazolo[3,4-f][1,2,4]triazin-11(7H)-one]
  IC50: < 1 µM

## CC(C)c1nnc2c(=O)n3c(nn12)CN(Cc1ccc(Cl)cc1)CC3 [Compound I-221, 7-(4-Chlorobenzyl)-3-isopropyl-8,9-dihydro-6H-pyrazino[2,1-c][1,2,4]triazolo[3,4-f][1,2,4]triazin-11(7H)-one]
  IC50: 1 to 10 µM

## COc1ccc(CN2CCn3c(nn4c(C(C)C)nnc4c3=O)C2)cc1 [Compound I-222, 3-Isopropyl-7-(4-methoxybenzyl)-8,9-dihydro-6H-pyrazino[2,1-c][1,2,4]triazolo[3,4-f][1,2,4]triazin-11(7H)-one]
  IC50: 1 to 10 µM

## CC(C)c1nnc2c(=O)n3c(nn12)CN(Cc1ccccc1)CC3 [Compound I-223, 7-Benzyl-3-isopropyl-8,9-dihydro-6H-pyrazino[2,1-c][1,2,4]triazolo[3,4-f][1,2,4]triazin-11(7H)-one]
  IC50: 1 to 10 µM

## CC(C)Cc1nnc2c(=O)n3c(nn12)CN(Cc1ccccn1)CC3 [Compound I-224, 3-Isobutyl-7-(pyridin-2-ylmethyl)-8,9-dihydro-6H-pyrazino[2,1-c][1,2,4]triazolo[3,4-f][1,2,4]triazin-11(7H)-one]
  IC50: 1 to 10 µM

## CC(C)c1nnc2c(=O)n3c(nn12)CN(CCc1ccccc1)CC3 [Compound I-225, 3-Isopropyl-7-phenethyl-8,9-dihydro-6H-pyrazino[2,1-c][1,2,4]triazolo[3,4-f][1,2,4]triazin-11(7H)-one]
  IC50: 1 to 10 µM

## CC(C)c1nnc2c(=O)n3c(nn12)CN(Cc1ccccn1)CC3 [Compound I-226, 3-Isopropyl-7-(pyridin-2-ylmethyl)-8,9-dihydro-6H-pyrazino[2,1-c][1,2,4]triazolo[3,4-f][1,2,4]triazin-11(7H)-one]
  IC50: > 10 µM

## CC(C)Cc1nnc2c(=O)n3c(nn12)CN(CCc1ccccc1)CC3 [Compound I-227, 3-Isobutyl-7-phenethyl-8,9-dihydro-6H-pyrazino[2,1-c][1,2,4]triazolo[3,4-f][1,2,4]triazin-11(7H)-one]
  IC50: 1 to 10 µM

## CC(C)Cc1nnc2c(=O)n3c(nn12)CN(Cc1ccncc1)CC3 [Compound I-228, 3-Isobutyl-7-(pyridin-4-ylmethyl)-8,9-dihydro-6H-pyrazino[2,1-c][1,2,4]triazolo[3,4-f][1,2,4]triazin-11(7H)-one]
  IC50: 1 to 10 µM

## COc1ccc(CN2CCn3c(nn4c(C5CCOCC5)ncc4c3=O)C2)cc1 [Compound I-234, 7-(4-Methoxybenzyl)-3-(tetrahydro-2H-pyran-4-yl)-8,9-dihydro-6H-imidazo[5,1-f]pyrazino[2,1-c][1,2,4]triazin-11(7H)-one]
  IC50: < 1 µM

## O=c1c2cnc(C3CCOCC3)n2nc2n1CCN(Cc1ccc(Cl)cc1)C2 [Compound I-235, 7-(4-Chlorobenzyl)-3-(tetrahydro-2H-pyran-4-yl)-8,9-dihydro-6H-imidazo[5,1-f]pyrazino[2,1-c][1,2,4]triazin-11(7H)-one]
  IC50: < 1 µM

## O=c1c2cnc(C3CCOCC3)n2nc2n1CCN(c1ccc(Cl)cc1)C2 [Compound I-236, 7-(4-Chlorophenyl)-3-(tetrahydro-2H-pyran-4-yl)-8,9-dihydro-6H-imidazo[5,1-f]pyrazino[2,1-c][1,2,4]triazin-11(7H)-one]
  IC50: < 1 µM

## CC(C)n1ncc2c(=O)n3c(nc21)CN(c1ccc(C#N)cc1)CC3 [Compound I-237, 4-(1-Isopropyl-4-oxo-6,7-dihydropyrazino[1,2-a]pyrazolo[3,4-d]pyrimidin-8(1H,4H,9H)-yl)benzonitrile]
  IC50: < 1 µM

## CC(C)c1ncc2c(=O)n3c(nn12)CN(c1ccc(C#N)cc1)CC3 [Compound I-238, 4-(3-Isopropyl-11-oxo-8,9-dihydro-6H-imidazo[5,1-f]pyrazino[2,1-c][1,2,4]triazin-7(11H)-yl)benzonitrile]
  IC50: < 1 µM

## CC(C)n1ncc2c(=O)n3c(nc21)CN(c1ccc(C(F)(F)F)cc1)CC3 [Compound I-239, 1-Isopropyl-8-(4-(trifluoromethyl)phenyl)-6,7,8,9-tetrahydropyrazino[1,2-a]pyrazolo[3,4-d]pyrimidin-4(1H)-one]
  IC50: < 1 µM

## CC(C)c1ncc2c(=O)n3c(nn12)CN(c1ccc(C(F)(F)F)cc1)CC3 [Compound I-240]
  IC50: < 1 µM

## CC(C)n1ncc2c(=O)n3c(nc21)CN(c1ccc(Cl)cn1)CC3 [Compound I-241, 8-(5-Chloropyridin-2-yl)-1-isopropyl-6,7,8,9-tetrahydropyrazino[1,2-a]pyrazolo[3,4-d]pyrimidin-4(1H)-one]
  IC50: < 1 µM

## CC(C)c1ncc2c(=O)n3c(nn12)CN(c1ccc(Cl)cn1)CC3 [Compound I-242, 7-(5-Chloropyridin-2-yl)-3-isopropyl-8,9-dihydro-6H-imidazo[5,1-f]pyrazino[2,1-c][1,2,4]triazin-11(7H)-one]
  IC50: < 1 µM

## O=c1c2cnn(C3CCCC3)c2nc2n1CCN(CCc1ccc(Cl)cc1)C2 [Compound I-243, 8-(4-Chlorophenethyl)-1-cyclopentyl-6,7,8,9-tetrahydropyrazino[1,2-a]pyrazolo[3,4-d]pyrimidin-4(1H)-one]
  IC50: 1 to 10 µM

## COc1ccc(CCN2CCn3c(nn4c(C5CCCC5)ncc4c3=O)C2)cc1 [Compound I-244, 3-Cyclopentyl-7-(4-methoxyphenethyl)-8,9-dihydro-6H-imidazo[5,1-f]pyrazino[2,1-c][1,2,4]triazin-11(7H)-one]
  IC50: 1 to 10 µM

## CC(C)c1nnc2c(=O)n3c(nn12)CN(Cc1ccncc1)CC3 [Compound I-245, 3-Isopropyl-7-(pyridin-4-ylmethyl)-8,9-dihydro-6H-pyrazino[2,1-c][1,2,4]triazolo[3,4-f][1,2,4]triazin-11(7H)-one]
  IC50: > 10 µM

## O=c1c2cnn(C3CCC3)c2nc2n1CCN(c1ccc(Cl)cc1)C2 [Compound I-246, 8-(4-Chlorophenyl)-1-cyclobutyl-6,7,8,9-tetrahydropyrazino[1,2-a]pyrazolo[3,4-d]pyrimidin-4(1H)-one]
  IC50: 1 to 10 µM

## CC(C)(C)n1ncc2c(=O)n3c(nc21)CN(c1ccc(Cl)cc1)CC3 [Compound I-247, 1-(tert-Butyl)-8-(4-chlorophenyl)-6,7,8,9-tetrahydropyrazino[1,2-a]pyrazolo[3,4-d]pyrimidin-4(1H)-one]
  IC50: 1 to 10 µM

## O=c1c2cnn(C3CC3)c2nc2n1CCN(c1ccc(Cl)cc1)C2 [Compound I-248, 8-(4-Chlorophenyl)-1-cyclopropyl-6,7,8,9-tetrahydropyrazino[1,2-a]pyrazolo[3,4-d]pyrimidin-4(1H)-one]
  IC50: < 1 µM

## O=c1c2cnc(C3CCC3)n2nc2n1CCN(c1ccc(Cl)cc1)C2 [Compound I-249, 7-(4-Chlorophenyl)-3-cyclobutyl-8,9-dihydro-6H-imidazo[5,1-f]pyrazino[2,1-c][1,2,4]triazin-11(7H)-one]
  IC50: < 1 µM

## CC(C)(C)c1ncc2c(=O)n3c(nn12)CN(c1ccc(Cl)cc1)CC3 [Compound I-250, 3-(tert-Butyl)-7-(4-chlorophenyl)-8,9-dihydro-6H-imidazo[5,1-f]pyrazino[2,1-c][1,2,4]triazin-11(7H)-one]
  IC50: 1 to 10 µM

## O=c1c2cnc(C3CC3)n2nc2n1CCN(c1ccc(Cl)cc1)C2 [Compound I-251, 7-(4-Chlorophenyl)-3-cyclopropyl-8,9-dihydro-6H-imidazo[5,1-f]pyrazino[2,1-c][1,2,4]triazin-11(7H)-one]
  IC50: < 1 µM
